Source: patent publication US20070190188A1, “Controlling Toxicity of Aminoquinoline Compounds” (The University of Mississippi, priority 2005, published 2007)
Each block holds one compound with its values, some of them ahead of it.

Columns and labels:
[1] = tested on: pooled human liver microsomes; test: In vitro formation of methemoglobinemic metabolites with pooled human liver microsomes and human erythrocytes; format: cell-based; conditions: for formation of methemoglobenemic metabolites, Control: macrolide alone, no 8-aminoquinoline
Method: (§1) In one aspect of the present invention, an in vitro assay is developed for evaluation of biotransformation reactions leading to generation of methemoglobinemic metabolites of 8-aminoquinolines. This method uses simultaneous incubation of a test compound with the hepatic microsomes or Baculosomes® (microsomes prepared from insect cells infected with recombinant baculovirus containing a cDNA insert for a specific human P450 isozyme and NADPH-P450 reductase) and human erythrocytes followed by determination of methemoglobin formation. This allows the unstable metabolites generated in situ to react with the human erythrocytes.

[2] = tested on: Mouse Liver Microsomes; test: In vitro formation of methemoglobinemic metabolites with mouse liver microsomes and human erythrocytes; format: cell-based; conditions: for formation of methemoglobenemic metabolites, Control / formation of methemoglobenemic metabolites, Azithromycin / formation of methemoglobenemic metabolites, Erythromycin / formation of methemoglobenemic metabolites, Microsomes: Mouse Liver Microsomes; for formation of methemoglobenemic metabolites, Control: macrolide alone, no 8-aminoquinoline; for formation of methemoglobenemic metabolites, Azithromycin: 8-aminoquinoline with Azithromycin; for formation of methemoglobenemic metabolites, Erythromycin: 8-aminoquinoline with Erythromycin; for formation of methemoglobenemic metabolites, Microsomes: no macrolide; for % methemoglobin formation, Mouse Liver Microsomes: drug 100 μM, microsomes equivalent to 25 pmoles cytochrome P450, Mean ± S.D. of four
Method: as §1

[3] = target: T1, CYP 2C19 (Homo sapiens, UniProt P33261); test: Methemoglobinemic metabolite formation with Baculosomes, CYP 2C19; format: cell-based; conditions: mean ± S.D. of four
T1 construct: purchased; host or cells: insect cells infected with recombinant baculovirus
Method: (§2) This method uses simultaneous incubation of a test compound with the hepatic microsomes or Baculosomes® (microsomes prepared from insect cells infected with recombinant baculovirus containing a cDNA insert for a specific human P450 isozyme and NADPH-P450 reductase) and human erythrocytes followed by determination of methemoglobin formation. This allows the unstable metabolites generated in situ to react with the human erythrocytes.

[4] = target: T2, CYP 2C9 (Homo sapiens, UniProt P11712); test: Methemoglobinemic metabolite formation with Baculosomes, CYP 2C9; format: cell-based; conditions: mean ± S.D. of four
T2 construct: purchased; host or cells: insect cells infected with recombinant baculovirus
Method: as §2

[5] = target: T3, CYP 2C8 (Homo sapiens, UniProt P10632); test: Methemoglobinemic metabolite formation with Baculosomes, CYP 2C8; format: cell-based; conditions: mean ± S.D. of four
T3 construct: purchased; host or cells: insect cells infected with recombinant baculovirus
T3 sequence (P10632 1-490): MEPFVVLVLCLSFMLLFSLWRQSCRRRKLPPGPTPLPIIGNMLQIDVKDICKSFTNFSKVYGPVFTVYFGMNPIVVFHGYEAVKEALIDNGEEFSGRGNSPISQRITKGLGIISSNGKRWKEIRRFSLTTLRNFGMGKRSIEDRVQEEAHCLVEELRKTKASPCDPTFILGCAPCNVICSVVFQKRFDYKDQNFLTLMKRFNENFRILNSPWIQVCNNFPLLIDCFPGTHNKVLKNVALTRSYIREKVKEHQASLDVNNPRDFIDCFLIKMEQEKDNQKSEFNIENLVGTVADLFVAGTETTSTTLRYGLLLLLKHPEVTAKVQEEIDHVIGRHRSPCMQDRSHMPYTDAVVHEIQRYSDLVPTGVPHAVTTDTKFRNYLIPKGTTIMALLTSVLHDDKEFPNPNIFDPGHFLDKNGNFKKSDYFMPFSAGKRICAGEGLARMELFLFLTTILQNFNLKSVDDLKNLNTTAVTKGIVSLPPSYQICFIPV
Method: as §1

[6] = target: T4, CYP 2D6 (Homo sapiens, UniProt P10635); test: Methemoglobinemic metabolite formation with Baculosomes, CYP 2D6; format: cell-based; conditions: mean ± S.D. of four
T4 construct: purchased; host or cells: insect cells infected with recombinant baculovirus
Method: as §2

[7] = target: T5, CYP 1A2 (Homo sapiens, UniProt P05177); test: Methemoglobinemic metabolite formation with Baculosomes, CYP 1A2; format: cell-based; conditions: mean ± S.D. of four
T5 construct: purchased; host or cells: insect cells infected with recombinant baculovirus
T5 sequence (P05177 2-516 limits assumed): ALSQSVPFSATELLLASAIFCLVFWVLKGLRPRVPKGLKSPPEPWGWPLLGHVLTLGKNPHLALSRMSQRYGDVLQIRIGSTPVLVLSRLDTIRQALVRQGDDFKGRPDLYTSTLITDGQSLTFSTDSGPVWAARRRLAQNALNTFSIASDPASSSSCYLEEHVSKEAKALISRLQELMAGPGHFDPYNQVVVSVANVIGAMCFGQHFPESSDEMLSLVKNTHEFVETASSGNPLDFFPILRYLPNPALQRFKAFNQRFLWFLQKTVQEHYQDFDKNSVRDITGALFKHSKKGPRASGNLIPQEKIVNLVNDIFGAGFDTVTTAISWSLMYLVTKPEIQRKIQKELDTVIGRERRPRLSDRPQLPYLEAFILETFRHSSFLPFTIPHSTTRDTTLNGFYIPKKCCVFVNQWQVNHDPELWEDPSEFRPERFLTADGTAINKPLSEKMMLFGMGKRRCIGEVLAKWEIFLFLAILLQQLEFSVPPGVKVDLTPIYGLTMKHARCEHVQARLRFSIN
Method: as §2

[8] = target: T6, CPY 2B6 (Homo sapiens, UniProt P20813); test: Methemoglobinemic metabolite formation with Baculosomes, CYP 2B6; format: cell-based; conditions: mean ± S.D. of four
T6 construct: purchased; host or cells: insect cells infected with recombinant baculovirus
T6 sequence (P20813 1-491): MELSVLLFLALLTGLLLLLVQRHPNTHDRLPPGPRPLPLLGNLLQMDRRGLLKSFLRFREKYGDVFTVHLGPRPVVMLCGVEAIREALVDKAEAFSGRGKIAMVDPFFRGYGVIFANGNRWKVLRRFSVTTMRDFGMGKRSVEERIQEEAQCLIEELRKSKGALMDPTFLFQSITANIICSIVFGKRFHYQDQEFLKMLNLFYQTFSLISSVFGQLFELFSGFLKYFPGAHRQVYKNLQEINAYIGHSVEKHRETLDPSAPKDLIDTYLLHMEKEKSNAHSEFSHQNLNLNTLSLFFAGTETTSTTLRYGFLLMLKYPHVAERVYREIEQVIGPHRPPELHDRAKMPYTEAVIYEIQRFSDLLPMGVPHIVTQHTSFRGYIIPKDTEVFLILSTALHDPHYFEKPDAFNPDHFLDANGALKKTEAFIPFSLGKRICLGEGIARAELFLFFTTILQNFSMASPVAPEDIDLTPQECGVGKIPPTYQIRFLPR
Method: as §2

[9] = tested on: human erythrocytes; test: In vitro methemoglobin formation, human erythrocytes, control without microsomes; format: cell-based; conditions: for % methemoglobin formed, Supersomes None: no Baculosomes, mean ± S.D. of four; for % methemoglobin formation, Control: no microsomes, drug 100 μM, Mean ± S.D. of four observations
Method: as §1

[10] = target: T7, CYP 2E1 (Homo sapiens, UniProt P05181); test: Methemoglobinemic metabolite formation with Baculosomes, CYP 2E1; format: cell-based; conditions: mean ± S.D. of four
T7 construct: purchased; host or cells: insect cells infected with recombinant baculovirus
Method: as §2

[11] = target: T8, CYP 2A6 (Homo sapiens, UniProt P11509); test: Methemoglobinemic metabolite formation with Baculosomes, CYP 2A6; format: cell-based; conditions: mean ± S.D. of four
T8 construct: purchased; host or cells: insect cells infected with recombinant baculovirus
T8 sequence (P11509 1-494): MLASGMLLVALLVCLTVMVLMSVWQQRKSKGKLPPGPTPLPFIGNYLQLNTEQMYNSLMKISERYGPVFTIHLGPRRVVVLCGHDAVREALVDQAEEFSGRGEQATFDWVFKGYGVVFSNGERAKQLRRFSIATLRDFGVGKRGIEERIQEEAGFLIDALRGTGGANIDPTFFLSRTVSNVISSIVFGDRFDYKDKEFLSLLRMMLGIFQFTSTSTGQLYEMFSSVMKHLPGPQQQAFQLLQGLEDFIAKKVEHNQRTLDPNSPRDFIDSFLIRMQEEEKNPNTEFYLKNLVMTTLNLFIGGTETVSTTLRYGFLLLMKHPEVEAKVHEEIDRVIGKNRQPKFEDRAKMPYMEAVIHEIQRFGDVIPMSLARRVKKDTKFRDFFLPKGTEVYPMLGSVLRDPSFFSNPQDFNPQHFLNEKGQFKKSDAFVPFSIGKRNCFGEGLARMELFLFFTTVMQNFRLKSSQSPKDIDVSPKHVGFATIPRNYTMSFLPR
Method: as §2

[12] = target: T9, CYP 3A4 (Homo sapiens, UniProt P08684); test: Methemoglobinemic metabolite formation with Baculosomes, CYP 3A4; format: cell-based
T9 construct: purchased; host or cells: insect cells infected with recombinant baculovirus
Method: as §1

[13] = tested on: Plasmodium berghei; test: In vivo antimalarial evaluation in Plasmodium berghei-mouse malaria model; conditions: TAO i.p. 50 mg/kg × 3 once daily alone; for (%) Parasitemia: mean in brackets
From the text: One concern with this method of controlling 8-aminoquinoline toxicity is that the inhibition metabolism of the drug may impair its antiparasitic efficacy. […] Thus treatment of the individuals with NPC1161B along with an inhibitor of CYP3A4 should not compromise the therapeutic efficiency of NPC1161B.

T9 sequence (P08684 2-503 limits assumed): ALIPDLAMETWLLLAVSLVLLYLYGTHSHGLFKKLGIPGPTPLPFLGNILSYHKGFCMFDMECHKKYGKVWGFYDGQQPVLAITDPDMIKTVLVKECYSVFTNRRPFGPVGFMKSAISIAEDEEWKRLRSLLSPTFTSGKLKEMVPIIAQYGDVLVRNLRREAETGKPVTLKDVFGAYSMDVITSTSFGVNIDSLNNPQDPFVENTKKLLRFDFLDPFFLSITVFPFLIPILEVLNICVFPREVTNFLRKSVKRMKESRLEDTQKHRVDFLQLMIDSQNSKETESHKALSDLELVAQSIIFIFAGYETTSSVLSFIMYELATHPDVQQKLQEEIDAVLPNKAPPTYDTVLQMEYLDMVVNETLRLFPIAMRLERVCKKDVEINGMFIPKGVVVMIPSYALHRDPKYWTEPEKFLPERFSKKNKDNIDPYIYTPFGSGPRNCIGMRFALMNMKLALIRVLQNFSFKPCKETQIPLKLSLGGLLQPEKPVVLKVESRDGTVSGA
T1 sequence (P33261 whole entry): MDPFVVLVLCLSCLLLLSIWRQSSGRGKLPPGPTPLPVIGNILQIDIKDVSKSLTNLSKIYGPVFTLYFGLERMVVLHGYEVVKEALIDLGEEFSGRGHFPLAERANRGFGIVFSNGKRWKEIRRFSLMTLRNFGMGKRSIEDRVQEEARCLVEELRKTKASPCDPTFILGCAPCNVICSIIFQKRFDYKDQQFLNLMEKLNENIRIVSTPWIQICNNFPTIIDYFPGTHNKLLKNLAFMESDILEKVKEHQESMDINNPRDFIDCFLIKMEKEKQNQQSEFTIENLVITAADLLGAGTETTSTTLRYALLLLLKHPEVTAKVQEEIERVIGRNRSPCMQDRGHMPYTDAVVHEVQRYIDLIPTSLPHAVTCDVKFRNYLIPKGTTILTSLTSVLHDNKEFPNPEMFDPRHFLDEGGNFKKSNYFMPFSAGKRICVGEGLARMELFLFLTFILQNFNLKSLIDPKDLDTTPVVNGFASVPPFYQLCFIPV
T7 sequence (P05181 whole entry): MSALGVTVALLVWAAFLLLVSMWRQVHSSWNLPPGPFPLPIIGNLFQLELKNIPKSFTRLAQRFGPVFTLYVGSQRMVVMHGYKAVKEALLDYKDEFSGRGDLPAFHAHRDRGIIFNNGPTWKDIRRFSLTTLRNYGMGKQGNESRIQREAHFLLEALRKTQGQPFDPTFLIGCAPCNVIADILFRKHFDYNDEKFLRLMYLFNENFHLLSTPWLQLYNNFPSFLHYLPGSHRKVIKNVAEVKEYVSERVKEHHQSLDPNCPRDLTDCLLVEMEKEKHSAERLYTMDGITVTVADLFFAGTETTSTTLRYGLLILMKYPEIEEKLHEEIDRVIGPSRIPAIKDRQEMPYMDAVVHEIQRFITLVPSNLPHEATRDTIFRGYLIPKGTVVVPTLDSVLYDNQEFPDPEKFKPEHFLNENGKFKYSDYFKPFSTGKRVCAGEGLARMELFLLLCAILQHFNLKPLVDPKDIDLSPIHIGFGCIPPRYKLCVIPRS
T4 sequence (P10635 whole entry): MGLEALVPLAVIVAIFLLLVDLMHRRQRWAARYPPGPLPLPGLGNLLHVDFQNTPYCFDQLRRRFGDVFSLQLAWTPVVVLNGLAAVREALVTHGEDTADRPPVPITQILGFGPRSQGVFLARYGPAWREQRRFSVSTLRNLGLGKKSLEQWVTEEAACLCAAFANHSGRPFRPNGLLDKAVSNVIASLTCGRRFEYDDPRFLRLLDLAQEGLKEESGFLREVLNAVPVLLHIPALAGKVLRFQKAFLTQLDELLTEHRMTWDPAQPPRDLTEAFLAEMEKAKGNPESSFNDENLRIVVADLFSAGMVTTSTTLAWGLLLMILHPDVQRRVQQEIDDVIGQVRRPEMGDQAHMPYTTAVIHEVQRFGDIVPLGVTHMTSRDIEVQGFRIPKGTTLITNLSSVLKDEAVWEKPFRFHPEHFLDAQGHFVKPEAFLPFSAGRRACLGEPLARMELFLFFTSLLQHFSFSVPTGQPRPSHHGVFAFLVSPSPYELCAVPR
T2 sequence (P11712 whole entry): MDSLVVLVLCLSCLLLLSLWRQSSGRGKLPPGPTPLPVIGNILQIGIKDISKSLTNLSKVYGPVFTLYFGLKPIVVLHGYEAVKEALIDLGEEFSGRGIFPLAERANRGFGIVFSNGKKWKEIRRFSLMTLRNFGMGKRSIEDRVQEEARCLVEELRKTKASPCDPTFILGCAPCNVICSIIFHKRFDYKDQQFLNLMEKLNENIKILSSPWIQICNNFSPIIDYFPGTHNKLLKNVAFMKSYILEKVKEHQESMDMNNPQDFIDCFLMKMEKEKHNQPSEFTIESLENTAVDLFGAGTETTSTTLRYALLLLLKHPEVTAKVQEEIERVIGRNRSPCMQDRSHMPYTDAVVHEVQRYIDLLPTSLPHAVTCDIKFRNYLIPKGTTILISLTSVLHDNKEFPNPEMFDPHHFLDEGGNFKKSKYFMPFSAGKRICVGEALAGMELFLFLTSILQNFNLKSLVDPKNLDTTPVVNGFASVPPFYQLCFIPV

Compound: CC[C@H]1OC(=O)[C@H](C)[C@@H](O[C@H]2C[C@@](C)(OC)[C@@H](O)[C@H](C)O2)[C@H](C)[C@@H](O[C@@H]2O[C@H](C)C[C@H](N(C)C)[C@H]2O)[C@](C)(O)C[C@@H](C)CN(C)[C@H](C)[C@@H](O)[C@]1(C)O [Azithromycin, reference compound]
formation of methemoglobenemic metabolites, Control ([1]; pooled human Liver Microsomes): 0
formation of methemoglobenemic metabolites, Control [2]: 6.598 ± 0.505

Compound: COc1cc(NC(C)CCCN)c2ncccc2c1 (stereo not shown) [Primaquine, primaquine, reference compound]
% methemoglobin formed, Supersomes None [9]: 1.465 ± 0.183%
% methemoglobin formation, Control [9]: 1.465 ± 0.414%
formation of methemoglobenemic metabolites, Azithromycin [2]: 11.800 ± 2.862
formation of methemoglobenemic metabolites, Erythromycin [2]: 23.770 ± 5.826
formation of methemoglobenemic metabolites, Microsomes [2]: 36.660 ± 2.612
% methemoglobin formation, Mouse Liver Microsomes [2]: 36.660 ± 2.612%

Compound: CO[C@H]1C[C@H](O[C@H]2[C@H](C)[C@@H](O[C@@H]3O[C@H](C)C[C@H](N(C)C)[C@H]3OC(C)=O)[C@@H](C)C[C@@]3(CO3)C(=O)[C@H](C)[C@@H](OC(C)=O)[C@@H](C)[C@@H](C)OC(=O)[C@@H]2C)O[C@@H](C)[C@@H]1OC(C)=O [Troleandomycin, troleandomycin, reference compound]
MST [13]: 15 days
(%) Parasitemia ([13]; day 7 p.i.): 13.3/18.3/25.5/16.5/13.1 (17.3) %
(%) Parasitemia ([13]; day 10 p.i.): 22.7/34.5/32.0/32.1/24.3 (29.1) %
(%) Parasitemia ([13]; day 14 p.i.): 31.5/41.5/28.5/49.3/49.3 (40.0) %
deaths ([13]; number of deaths/day): 5/15

The next lines start with results.

formation of methemoglobenemic metabolites, Control ([1]; pooled human Liver Microsomes): 0
formation of methemoglobenemic metabolites, Control [2]: 6.230 ± 1.009
Compound: CC[C@H]1OC(=O)[C@H](C)[C@@H](O[C@H]2C[C@@](C)(OC)[C@@H](O)[C@H](C)O2)[C@H](C)[C@@H](O[C@@H]2O[C@H](C)C[C@H](N(C)C)[C@H]2O)[C@](C)(O)C[C@@H](C)C(=O)[C@H](C)[C@@H](O)[C@]1(C)O [Erythromycin, erythromycin, reference compound]

% methemoglobin formed, CYP 2C19 [3]: 1.733 ± 0.327%
% methemoglobin formed, CYP 2C9 [4]: 0.070 ± 0.130%
% methemoglobin formed, CYP 2C8 [5]: 1.893 ± 0.275%
% methemoglobin formed, CYP 2D6 [6]: 17.200 ± 1.088%
% methemoglobin formed, CYP 1A2 [7]: 2.060 ± 0.185%
% methemoglobin formed, CPY 2B6 [8]: 5.465 ± 0.625%
% methemoglobin formed, Supersomes None [9]: 2.138 ± 0.624%
% methemoglobin formation, Control [9]: 2.138 ± 0.624%
% methemoglobin formation, Pooled Human liver Microsomes ([1]; drug 100 μM, microsomes equivalent to 25 pmoles cytochrome P450, Mean ± S.D. of four): 12.510 ± 1.890%
formation of methemoglobenemic metabolites, Azithromycin ([1]; pooled human Liver Microsomes, 8-aminoquinoline with Azithromycin): 10.595 ± 0.842
formation of methemoglobenemic metabolites, Erythromycin ([1]; pooled human Liver Microsomes, 8-aminoquinoline with Erythromycin): 6.720 ± 1.011
formation of methemoglobenemic metabolites, Microsomes ([1]; pooled human Liver Microsomes, no macrolide): 12.860 ± 1.994
% methemoglobin formed, CYP 2E1 [10]: 8.703 ± 0.956%
% methemoglobin formed, CYP 2A6 [11]: 2.775 ± 0.175%
% methemoglobin formed, Cimetidine ([12]; 3A4 Baculosomes, 8-aminoquinoline 100 μM with Cimetidine 100 μM): 11.905 ± 1.420%
% methemoglobin formed, Erythromycin ([12]; 3A4 Baculosomes, 8-aminoquinoline 100 μM with Erythromycin 100 μM): 15.288 ± 2.359%
% methemoglobin formed, Ketoconazole ([12]; 3A4 Baculosomes, 8-aminoquinoline 100 μM with Ketoconazole 100 μM): 19.010 ± 0.870%
% methemoglobin formed, Troleandomycin ([12]; 3A4 Baculosomes, 8-aminoquinoline 100 μM with Troleandomycin 100 μM): 16.743 ± 1.401%
% methemoglobin formed, inhibitor None ([12]; 3A4 Baculosomes, 8-aminoquinoline 100 μM, no inhibitor): 20.925 ± 0.502%
% methemoglobin formed, CYP 3A4 ([12]; Baculosomes, mean ± S.D. of four): 15.320 ± 0.504%
formation of methemoglobenemic metabolites, Azithromycin [2]: 10.850 ± 2.134
formation of methemoglobenemic metabolites, Erythromycin [2]: 9.375 ± 0.686
formation of methemoglobenemic metabolites, Microsomes [2]: 17.790 ± 1.460
% methemoglobin formation, Mouse Liver Microsomes [2]: 17.790 ± 1.460%
Compound: COc1cc(N[C@@H](C)CCCN)c2nccc(C)c2c1Oc1ccc(Cl)c(Cl)c1 [NPC1161A]
methemoglobin toxicity generated by CYP 3A4, comparison among the three 8-aminoquinolines ([12]; FIG. 5): almost similar methemoglobin toxicity
